Source: paper PMC6364417, “Kinase inhibitor library screening identifies synergistic drug combinations effective in sensitive and resistant melanoma cells” (Journal of Experimental & Clinical Cancer Research : CR, 2019)

Key:
Experiment in all cases: Kinase inhibitor library screening, PrestoBlue cell viability, 1 or 10 μM, 72 h
A375 cells (parental) = system: A375 cells (parental)
[1] = system: 501Mel-XP cells (Vemurafenib-resistant); conditions: 72 h
[2] = system: 501Mel-GP cells (Dabrafenib-resistant); conditions: 72 h
[3] = system: IGR37-XP cells (Vemurafenib-resistant)
501Mel cells (parental) = conditions: 72 h
Method in brief: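 Readout: PrestoBlue signal on a monochromator plate reader, given as percent viability relative to untreated controls. Parental and drug-resistant (Vemurafenib XP, Dabrafenib GP) sublines were tested; at least duplicates per line.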

[4] = system: A375-XP cells (Vemurafenib-resistant)
[5] = system: A375-GP cells (Dabrafenib-resistant)
[6] = system: IGR37-GP cells (Dabrafenib-resistant)
IGR37 cells (parental) = system: IGR37 cells (parental)
[7] = IGR37 Parental, 1μΜ, 72 h, in %
[8] = IGR37 Parental, 10μΜ, 72 h, in %

## O=C(NOC[C@H](O)CO)c1ccc(F)c(F)c1Nc1ccc(I)cc1F [PD0325901]
A375 cells (parental); Homo sapiens, A-375, 72 h, read-out: cell viability, A375 Parental, 1μΜ
  viability at 1 µM: 17.6%
A375 cells (parental); Homo sapiens, A-375, 72 h, read-out: cell viability, A375 Parental, 10μΜ
  viability at 10 µM: 17.5%
[1]; Homo sapiens, read-out: cell viability, 501Mel XP, 1μΜ
  viability at 1 µM: 72%
[1]; Homo sapiens, read-out: cell viability, 501Mel XP, 10μΜ
  viability at 10 µM: 54.1%
[2]; Homo sapiens, read-out: cell viability, 501Mel GP, 1μΜ
  viability at 1 µM: 87.8%
[2]; Homo sapiens, read-out: cell viability, 501Mel GP, 10μΜ
  viability at 10 µM: 66.1%
[3]; Homo sapiens, IGR-37, 72 h, read-out: cell viability, IGR37 XP, 1μΜ
  viability at 1 µM: 58.6%
[3]; Homo sapiens, IGR-37, 72 h, read-out: cell viability, IGR37 XP, 10μΜ
  viability at 10 µM: 15.7%
501Mel cells (parental); Homo sapiens, read-out: cell viability, 501Mel Parental, 1μΜ
  viability at 1 µM: 56.4%
501Mel cells (parental); Homo sapiens, read-out: cell viability, 501Mel Parental, 10μΜ
  viability at 10 µM: 64.3%
[4]; Homo sapiens, A-375, 72 h, read-out: cell viability, A375 XP, 1μΜ
  viability at 1 µM: 11.5%
[4]; Homo sapiens, A-375, 72 h, read-out: cell viability, A375 XP, 10μΜ
  viability at 10 µM: 11.4%
[5]; Homo sapiens, A-375, 72 h, read-out: cell viability, A375 GP, 1μΜ
  viability at 1 µM: 12.6%
[5]; Homo sapiens, A-375, 72 h, read-out: cell viability, A375 GP, 10μΜ
  viability at 10 µM: 13.1%
[6]; Homo sapiens, IGR-37, 72 h, read-out: cell viability, IGR37 GP, 1μΜ
  viability at 1 µM: 76.5%
[6]; Homo sapiens, IGR-37, 72 h, read-out: cell viability, IGR37 GP, 10μΜ
  viability at 10 µM: 46.2%
IGR37 cells (parental); Homo sapiens, IGR-37, 72 h, read-out: cell viability, IGR37 Parental, 1μΜ
  viability at 1 µM: 34.5%
IGR37 cells (parental); Homo sapiens, IGR-37, 72 h, read-out: cell viability, IGR37 Parental, 10μΜ
  viability at 10 µM: 35.2%

## CC(=O)c1c(C)c2cnc(Nc3ccc(N4CCNCC4)cn3)nc2n(C2CCCC2)c1=O.Cl [PD 0332991 (Palbociclib) HCl]
A375 cells (parental); A375 Parental, 10μΜ, 72 h
  cell viability (kinase inhibitor library screening): 59.1%
A375 cells (parental); A375 Parental, 1μΜ, 72 h
  cell viability (kinase inhibitor library screening): 78.9%
[1]; 501Mel XP, 1μΜ
  cell viability (kinase inhibitor library screening): 76.9%
[1]; 501Mel XP, 10μΜ
  cell viability (kinase inhibitor library screening): 25.1%
[2]; 501Mel GP, 1μΜ
  cell viability (kinase inhibitor library screening): 83.8%
[2]; 501Mel GP, 10μΜ
  cell viability (kinase inhibitor library screening): 66.3%
[3]; IGR37 XP, 1μΜ, 72 h
  cell viability (kinase inhibitor library screening): 98.1%
[3]; IGR37 XP, 10μΜ, 72 h
  cell viability (kinase inhibitor library screening): 28.9%
501Mel cells (parental); 501Mel Parental, 1μΜ
  cell viability (kinase inhibitor library screening): 89.7%
501Mel cells (parental); 501Mel Parental, 10μΜ
  cell viability (kinase inhibitor library screening): 80.1%
[4]; A375 XP, 1μΜ, 72 h
  cell viability (kinase inhibitor library screening): 74.5%
[4]; A375 XP, 10μΜ, 72 h
  cell viability (kinase inhibitor library screening): 63.1%
[5]; A375 GP, 1μΜ, 72 h
  cell viability (kinase inhibitor library screening): 77.9%
[5]; A375 GP, 10μΜ, 72 h
  cell viability (kinase inhibitor library screening): 57.2%
[6]; IGR37 GP, 10μΜ, 72 h
  cell viability (kinase inhibitor library screening): 78.0%
IGR37 cells (parental); IGR37 Parental, 1μΜ, 72 h
  cell viability (kinase inhibitor library screening): 96.5%

## CN(c1ncccc1CNc1nc(Nc2ccc3c(c2)CC(=O)N3)ncc1C(F)(F)F)S(C)(=O)=O [PF-00562271]
A375 cells (parental); A375 Parental, 1μΜ, 72 h, in %
  cell viability, A375 Parental, 1μΜ: 104.9
A375 cells (parental); A375 Parental, 10μΜ, 72 h, in %
  cell viability, A375 Parental, 10μΜ: 4.0
[1]; 501Mel XP, 1μΜ, in %
  cell viability, 501Mel XP, 1μΜ: 94.1
[1]; 501Mel XP, 10μΜ, in %
  cell viability, 501Mel XP, 10μΜ: 0.458
[2]; 501Mel GP, 1μΜ, in %
  cell viability, 501Mel GP, 1μΜ: 98.0
[2]; 501Mel GP, 10μΜ, in %
  cell viability, 501Mel GP, 10μΜ: 0.9
[3]; IGR37 XP, 10μΜ, 72 h
  cell viability, IGR37 XP, 10μΜ: 1.9%
[3]; IGR37 XP, 1μΜ, 72 h, in %
  cell viability, IGR37 XP, 1μΜ: 82.7
501Mel cells (parental); 501Mel Parental, 10μΜ, in %
  cell viability, 501Mel Parental, 10μΜ: 1.5
[4]; A375 XP, 1μΜ, 72 h, in %
  cell viability, A375 XP, 1μΜ: 107.5
[4]; A375 XP, 10μΜ, 72 h, in %
  cell viability, A375 XP, 10μΜ: 3.4
[5]; A375 GP, 1μΜ, 72 h, in %
  cell viability, A375 GP, 1μΜ: 92.2
[5]; A375 GP, 10μΜ, 72 h, in %
  cell viability, A375 GP, 10μΜ: 4.9
[6]; IGR37 GP, 10μΜ, 72 h
  cell viability, IGR37 GP, 10μΜ: 2.9%
IGR37 cells (parental); [7]
  cell viability, IGR37 Parental, 1μΜ: 103.3
IGR37 cells (parental); [8]
  cell viability, IGR37 Parental, 10μΜ: 3.6

## CC(=O)NCC(=O)N1[C@@H]2CC[C@H]1c1ccc(Nc3ncc(C(F)(F)F)c(NC4CCC4)n3)cc12 [PF-03814735]
A375 cells (parental); A375 Parental, 10μΜ, 72 h
  cell viability (kinase inhibitor library screening): 8.5%
A375 cells (parental); A375 Parental, 1μΜ, 72 h
  cell viability (kinase inhibitor library screening): 32.3%
[1]; 501Mel XP, 1μΜ
  cell viability (kinase inhibitor library screening): 72.2%
[1]; 501Mel XP, 10μΜ
  cell viability (kinase inhibitor library screening): 3.8%
[2]; 501Mel GP, 1μΜ
  cell viability (kinase inhibitor library screening): 89.2%
[2]; 501Mel GP, 10μΜ
  cell viability (kinase inhibitor library screening): 8.3%
[3]; IGR37 XP, 1μΜ, 72 h
  cell viability (kinase inhibitor library screening): 69.3%
[3]; IGR37 XP, 10μΜ, 72 h
  cell viability (kinase inhibitor library screening): 2.0%
501Mel cells (parental); 501Mel Parental, 1μΜ
  cell viability (kinase inhibitor library screening): 82.8%
501Mel cells (parental); 501Mel Parental, 10μΜ
  cell viability (kinase inhibitor library screening): 24.0%
[4]; A375 XP, 1μΜ, 72 h
  cell viability (kinase inhibitor library screening): 40.9%
[4]; A375 XP, 10μΜ, 72 h
  cell viability (kinase inhibitor library screening): 12.4%
[5]; A375 GP, 1μΜ, 72 h
  cell viability (kinase inhibitor library screening): 35.1%
[5]; A375 GP, 10μΜ, 72 h
  cell viability (kinase inhibitor library screening): 3.7%
[6]; IGR37 GP, 1μΜ, 72 h
  cell viability (kinase inhibitor library screening): 91.2%
[6]; IGR37 GP, 10μΜ, 72 h
  cell viability (kinase inhibitor library screening): 10.4%
IGR37 cells (parental); IGR37 Parental, 1μΜ, 72 h
  cell viability (kinase inhibitor library screening): 88.9%
IGR37 cells (parental); IGR37 Parental, 10μΜ, 72 h
  cell viability (kinase inhibitor library screening): 37.6%

## CN(C)C1CCN(C(=O)c2ccc(NC(=O)Nc3ccc(-c4nc(N5CCOCC5)nc(N5CCOCC5)n4)cc3)cc2)CC1 [PF-05212384 (PKI-587)]
A375 cells (parental); A375 Parental, 10μΜ, 72 h
  Cell viability in kinase inhibitor library screening, A375 Parental, 10μΜ: 13.9
A375 cells (parental); A375 Parental, 1μΜ, 72 h
  Cell viability in kinase inhibitor library screening, A375 Parental, 1μΜ: 35.9
[1]; 501Mel XP, 1μΜ, in %
  Cell viability in kinase inhibitor library screening, 501Mel XP, 1μΜ: 53.1
[1]; 501Mel XP, 10μΜ, in %
  Cell viability in kinase inhibitor library screening, 501Mel XP, 10μΜ: 0.9
[2]; 501Mel GP, 1μΜ, in %
  Cell viability in kinase inhibitor library screening, 501Mel GP, 1μΜ: 29.3
[2]; 501Mel GP, 10μΜ, in %
  Cell viability in kinase inhibitor library screening, 501Mel GP, 10μΜ: 2.2
[3]; IGR37 XP, 10μΜ, 72 h
  Cell viability in kinase inhibitor library screening, IGR37 XP, 10μΜ: 3%
[3]; IGR37 XP, 1μΜ, 72 h, in %
  Cell viability in kinase inhibitor library screening, IGR37 XP, 1μΜ: 33.0
501Mel cells (parental); 501Mel Parental, 1μΜ, in %
  Cell viability in kinase inhibitor library screening, 501Mel Parental, 1μΜ: 22.6
501Mel cells (parental); 501Mel Parental, 10μΜ, in %
  Cell viability in kinase inhibitor library screening, 501Mel Parental, 10μΜ: 1.3
[4]; A375 XP, 1μΜ, 72 h
  Cell viability in kinase inhibitor library screening, A375 XP, 1μΜ: 33.4
[4]; A375 XP, 10μΜ, 72 h
  Cell viability in kinase inhibitor library screening, A375 XP, 10μΜ: 11.6
[5]; A375 GP, 1μΜ, 72 h
  Cell viability in kinase inhibitor library screening, A375 GP, 1μΜ: 34.6
[5]; A375 GP, 10μΜ, 72 h
  Cell viability in kinase inhibitor library screening, A375 GP, 10μΜ: 13.9
[6]; IGR37 GP, 10μΜ, 72 h
  Cell viability in kinase inhibitor library screening, IGR37 GP, 10μΜ: 6.8%
[6]; IGR37 GP, 1μΜ, 72 h, in %
  Cell viability in kinase inhibitor library screening, IGR37 GP, 1μΜ: 39.4
IGR37 cells (parental); [7]
  Cell viability in kinase inhibitor library screening, IGR37 Parental, 1μΜ: 35.0
IGR37 cells (parental); [8]
  Cell viability in kinase inhibitor library screening, IGR37 Parental, 10μΜ: 14.2
